# Experimental data taken from patent US11198695B2, “Fused ring derivative having MGAT-2 inhibitory activity” (Shionogi & Co., Ltd., priority 2017, dated 2021).
# pIC50: −log10 of the molar value.
# Target: recombinant human MGAT2 (Homo sapiens (Human), UniProt Q3SYC2)
# Assay: Measurement of human MGAT2 inhibitory activity
# Assay type: biochemical
# Conditions: read-out: IC50 (concentration exhibiting 50% enzyme inhibition), Table 52
# How it was run: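 Membrane fraction of Sf9 cells expressing N-terminally Flag-tagged full-length human MGAT2, incubated 1 h at room temperature in 100 mmol/L phosphate pH 7.4 with 2 mmol/L DTT. The substrate solution held 30 μmol/L 2-oleoylglycerol and 10 μmol/L oleoyl-CoA. Diolein product was quantified by RapidFire ESI Q-TOF MS against diolein-d5 internal standard; % inhibition was set relative to with/without-enzyme controls.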
# Sequence of recombinant human MGAT2 (Q3SYC2 whole entry): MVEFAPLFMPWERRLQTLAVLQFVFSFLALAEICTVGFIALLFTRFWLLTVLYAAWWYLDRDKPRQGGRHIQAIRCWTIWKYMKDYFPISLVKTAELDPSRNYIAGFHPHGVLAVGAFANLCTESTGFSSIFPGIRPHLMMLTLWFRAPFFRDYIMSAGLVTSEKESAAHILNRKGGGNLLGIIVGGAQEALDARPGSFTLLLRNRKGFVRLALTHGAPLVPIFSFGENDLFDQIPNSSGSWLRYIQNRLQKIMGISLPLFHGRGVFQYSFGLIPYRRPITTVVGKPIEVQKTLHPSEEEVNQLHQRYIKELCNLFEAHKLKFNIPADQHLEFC
row,SMILES,pIC50
1,O=C(NCc1c2c(nn1CCC1CC1)C[C@]1(CCc3cc(OCC(F)(F)F)ccc31)NC2=O)c1ccon1 [Compound I-151],6.74
2,CS(=O)(=O)CC(=O)Nc1c2c(nn1-c1cccnn1)C[C@]1(CCc3cc(OCC(F)(F)F)ccc31)NC2=O [Compound I-265],7.44
3,CS(=O)(=O)CC(=O)Nc1c2c(nn1-c1cccc3c1CCC3)C[C@]1(CCc3cc(OCCCC(F)(F)F)ccc31)NC2=O [Compound I-41],7.10
4,CS(=O)(=O)CC(=O)Nc1c2c(nn1-c1ccc(C#N)cn1)C[C@]1(CCc3cc(OCC(F)(F)F)cc(F)c31)NC2=O [Compound I-162],8.72
5,CCCCn1nc2c(c1NC(=O)CS(C)(=O)=O)C(=O)N[C@@]1(CCc3cc(OCCCC(F)(F)F)ccc31)C2 [Compound I-51],7.80
6,CS(=O)(=O)CC(=O)Nc1c2c(nn1-c1ccccn1)C[C@]1(CCOc3cc(OCC(F)(F)F)ccc31)NC2=O [Compound I-105],8.17
7,CS(=O)(=O)CC(=O)Nc1c2c(nn1-c1ccccn1)C[C@](c1ccc(OCC(F)(F)F)cc1)(C(F)(F)F)NC2=O [Compound I-103],6.49
8,CS(=O)(=O)CC(=O)NCc1c2c(nn1CCC1CC1)C[C@]1(CCc3cc(OCC(F)(F)F)ccc31)NC2=O [Compound I-213],7.37
9,CNS(=O)(=O)Nc1c2c(nn1CCC1CC1)C[C@]1(CCc3cc(OCCCC(F)(F)F)ccc31)NC2=O [Compound I-13],7.05
10,Cc1ccccc1Cn1nc(NC(=O)CS(C)(=O)=O)c2c1C[C@]1(CCc3cc(OCCCC(F)(F)F)ccc31)NC2=O [Compound I-75],6.24
11,Cc1cccc(-n2nc3c(c2NC(=O)CS(C)(=O)=O)C(=O)N[C@]2(CCc4cc(OCC(F)(F)F)ccc42)C3)c1 [Compound I-267],8.01
12,O=C1N[C@@]2(CCc3cc(OCC(F)(F)F)ccc32)Cc2nn(CCC3CC3)c(C(=O)NS(=O)(=O)C3CC3)c21 [Compound I-181],7.82
13,CS(=O)(=O)CC(=O)Nc1c2c(nn1-c1ccc(F)c(F)c1)C[C@]1(CCc3cc(OCC(F)(F)F)ccc31)NC2=O [Compound I-131],8.28
14,CCc1ccc(-n2nc3c(c2NC(=O)CS(C)(=O)=O)C(=O)N[C@@]2(CCc4cc(OCCCC(F)(F)F)ccc42)C3)cc1 [Compound I-139],8.39
15,CCCn1nc2c(c1NC(=O)CS(C)(=O)=O)C(=O)N[C@@]1(CCc3cc(OCCCC(F)(F)F)ccc31)C2 [Compound I-54],7.32
16,Cc1oncc1C(=O)Nc1c2c(nn1CCC1CC1)C[C@]1(CCc3cc(OCC(F)(F)F)ccc31)NC2=O [Compound I-224],6.51
17,CC1(S(=O)(=O)NC(=O)c2c3c(nn2CCC2CC2)C[C@]2(CCc4cc(OCC(F)(F)F)ccc42)NC3=O)CC1 [Compound I-110],8.00
18,CNS(=O)(=O)CC(=O)Nc1c2c(nn1CCC1CC1)C[C@]1(CCc3cc(OCCCC(F)(F)F)ccc31)NC2=O [Compound I-31],8.49
19,Cc1ncc(C(=O)Nc2c3c(nn2CCC2CC2)C[C@]2(CCc4cc(OCC(F)(F)F)ccc42)NC3=O)s1 [Compound I-230],6.68
20,O=C(Nc1c2c(nn1CCC1CC1)C[C@]1(CCc3cc(OCC(F)(F)F)ccc31)NC2=O)c1csnn1 [Compound I-219],6.96

row,SMILES,pIC50
1,O=C(Nc1c2c(nn1CCC1CC1)C[C@]1(CCc3cc(OCC(F)(F)F)ccc31)NC2=O)c1ccco1 [Compound I-220],7.46
2,CS(=O)(=O)NCc1c2c(nn1CCC1CC1)C[C@]1(CCc3cc(OCC(F)(F)F)ccc31)NC2=O [Compound I-138],6.26
3,O=C1N[C@@]2(CCc3cc(OCC(F)(F)F)ccc32)Cc2nn(CCC3CC3)c(C(=O)NS(=O)(=O)C(F)F)c21 [Compound I-109],8.21
4,COc1ccccc1C(=O)Nc1c2c(nn1CCC1CC1)C[C@]1(CCc3cc(OCCCC(F)(F)F)ccc31)NC2=O [Compound I-15],6.55
5,CS(=O)(=O)CC(=O)Nc1c2c(nn1CCC1CC1)C[C@]1(CCc3cc(N4CCC4)ccc31)NC2=O [Compound I-235],7.07
6,COCC(=O)Nc1c2c(nn1CCC1CC1)C[C@]1(CCc3cc(OCCCC(F)(F)F)ccc31)NC2=O [Compound I-29],6.95
7,COCCCn1nc2c(c1NC(=O)CS(C)(=O)=O)C(=O)N[C@@]1(CCc3cc(OCCCC(F)(F)F)ccc31)C2 [Compound I-58],8.26
8,CS(=O)(=O)CC(=O)Nc1c2c(nn1-c1ccc(C#N)cn1)C[C@]1(CCOc3cc(OCC(F)(F)F)ccc31)NC2=O [Compound I-243],8.46
9,CS(=O)(=O)CC(=O)Nc1c2c(nn1C1CCCCC1)C[C@@]1(CCc3cc(OCC(F)(F)F)ccc31)NC2=O [Compound I-273],7.70
10,CC(C)(O)c1ccc(-n2nc3c(c2NC(=O)CS(C)(=O)=O)C(=O)N[C@@]2(CCc4cc(OCCCC(F)(F)F)ccc42)C3)cc1 [Compound I-197],7.62
11,CS(=O)(=O)CC(=O)Nc1c2c(nn1CCCc1ccccc1)C[C@]1(CCc3cc(OCCCC(F)(F)F)ccc31)NC2=O [Compound I-50],6.72
12,Cn1c(-n2nc3c(c2NC(=O)CS(C)(=O)=O)C(=O)N[C@@]2(CCc4cc(OCCCC(F)(F)F)ccc42)C3)nc2ccccc21 [Compound I-45],7.38
13,CS(=O)(=O)CC(=O)Nc1c2c(nn1CCC1CC1)C[C@]1(CCc3cc(CCC(F)(F)F)ccc31)NC2=O [Compound I-35],8.17
14,Cc1ccc(-n2nc3c(c2NC(=O)CS(C)(=O)=O)C(=O)N[C@@]2(CCOc4cc(OCC(F)(F)F)ccc42)C3)cc1 [Compound I-274],8.41
15,O=C1N[C@@]2(CCc3cc(OCC(F)(F)F)ccc32)Cc2nn(CCC3CC3)c(C(=O)O)c21 [Compound I-187],6.72
16,CS(=O)(=O)CC(=O)Nc1c2c(nn1-c1ccncn1)C[C@]1(CCc3cc(OCC(F)(F)F)ccc31)NC2=O [Compound I-188],7.28
17,O=C(NCc1c2c(nn1CCC1CC1)C[C@]1(CCc3cc(OCC(F)(F)F)ccc31)NC2=O)c1cccc(O)c1 [Compound I-149],6.16
18,CS(=O)(=O)CC(=O)Nc1nn(CCOCC(F)F)c2c1C(=O)N[C@@]1(CCc3cc(OCCCC(F)(F)F)ccc31)C2 [Compound I-64],6.39
19,O=C(Nc1c2c(nn1CCC1CC1)C[C@]1(CCc3cc(OCC(F)(F)F)ccc31)NC2=O)c1cocn1 [Compound I-231],7.32

# Same assay, conditions: read-out: IC50 (concentration exhibiting 50% enzyme inhibition), Table 53
row,SMILES,pIC50
1,CC(C)(CNC(=O)c1c2c(nn1-c1ccc(C#N)cn1)C[C@]1(CCc3cc(OCC(F)(F)F)ccc31)NC2=O)C(N)=O [II-115],6.69
2,Cc1cc(-n2nc3c(c2NC(=O)CS(C)(=O)=O)C(=O)N[C@@]2(CCOc4cc(C5CC5)ccc42)C3)no1 [II-235],8.93
3,Cc1ccc(-n2nc3c(c2C(=O)NCC(F)(F)F)C(=O)N[C@@](c2ccc(OCC(F)(F)F)cc2F)(C(F)(F)F)C3)nc1 [II-240],7.84
4,Cc1cc(-n2nc3c(c2NC(=O)CS(C)(=O)=O)C(=O)N[C@@]2(CCOc4cc(OCC(F)(F)F)ccc42)C3)no1 [II-150],8.88
5,COc1nccc(NCc2c3c(nn2CCC2CC2)C[C@@]2(CCc4cc(OCC(F)(F)F)ccc42)NC3=O)n1 [II-68],6.38
6,CS(=O)(=O)CC(=O)Nc1c2c(nn1-c1cc(C(F)(F)F)on1)C[C@]1(CCOc3cc(OCC(F)(F)F)ccc31)NC2=O [II-256],8.28
7,CS(=O)(=O)CC(=O)Nc1c2c(nn1-c1ccc(C#N)cn1)CC1(CN(c3ccc(C(F)(F)F)nc3)C1)NC2=O [II-90],7.40
8,C[S+]([O-])CC(=O)Nc1c2c(nn1CCC1CC1)C[C@]1(CCc3cc(OCC(F)(F)F)ccc31)NC2=O (stereo partly drawn) [II-39],7.38
9,CS(=O)(=O)CC(=O)Nc1c2c(nn1CCC1CC1)C[C@@]1(CCc3cc(C4CC4)ccc31)NC2=O [II-76],8.22
10,N#Cc1ccc(-n2nc3c(c2NC(=O)c2cocn2)C(=O)N[C@@]2(CCc4cc(OCC(F)(F)F)ccc42)C3)nc1 [II-59],7.48
11,CS(=O)(=O)CC(=O)Nc1c2c(nn1-c1ccc(C#N)cn1)C[C@]1(CCc3cc(N4CC(F)C4)ccc31)NC2=O [II-55],7.36
12,O=C1N[C@]2(CCOc3cc(OCC(F)(F)F)ccc32)Cc2nn(CCCOC(F)(F)F)c(NC(=O)C3CS(=O)(=O)C3)c21 [II-293],8.56
13,Cc1ccc(-n2nc3c(c2NC(=O)CS(C)(=O)=O)C(=O)N[C@@]2(CCc4cc(Cl)ccc42)C3)nn1 [II-307],8.21
14,CS(=O)(=O)CC(=O)Nc1c2c(nn1CCC1CC1)C[C@@]1(CCc3cc(OCCCC(F)(F)F)ccc31)NC2=O [II-101],8.90
15,Cc1cc(-n2nc3c(c2NC(=O)CS(C)(=O)=O)C(=O)N[C@@]2(CCc4cc(OCC(F)(F)F)ccc42)C3)ccc1C#N [II-148],7.91
16,CS(=O)(=O)CC(=O)Nc1c2c(nn1-c1ccc(C(F)F)cc1)C[C@]1(CCc3cc(N4CC(F)(F)C4)ccc31)NC2=O [II-287],8.28
17,N#Cc1ccc(-n2nc3c(c2C(=O)NCCS(N)(=O)=O)C(=O)N[C@@]2(CCc4cc(OCC(F)(F)F)ccc42)C3)nc1 [II-134],7.76
18,CS(=O)(=O)CC(=O)Nc1c2c(nn1CCC1CC1)C[C@]1(CCc3c1ccc(N1CC(F)(F)C1)c3F)NC2=O [II-260],7.85
19,CS(=O)(=O)CC(=O)Nc1c2c(nn1CCc1ccc(F)cc1)C[C@@]1(CCc3cc(OCC(F)(F)F)ccc31)NC2=O [II-23],7.74
20,Cc1ccc(-n2nc3c(c2NC(=O)CS(C)(=O)=O)C(=O)N[C@](C)(c2ccc(OCC(C)(F)F)cc2F)C3)nc1 [II-208],8.51
21,Cc1ccc(-n2nc3c(c2NC(=O)CS(C)(=O)=O)C(=O)N[C@@]2(CCc4cc(N5CC(F)(F)C5)ccc42)C3)nc1 [II-120],8.03
22,Cc1cc(-n2nc3c(c2NC(=O)CS(C)(=O)=O)C(=O)N[C@](C)(c2ccc(OCCCC(F)(F)F)cc2F)C3)no1 [II-305],9.00
23,Cc1ccc(-n2nc3c(c2NC(=O)CS(C)(=O)=O)C(=O)N[C@@](c2ccc(OCC(F)(F)F)cc2F)(C(F)(F)F)C3)nc1 [II-162],8.25
24,N#Cc1ccc(-n2nc3c(c2C(=O)NC2CS(=O)(=O)C2)C(=O)N[C@@]2(CCc4cc(OCC(F)(F)F)ccc42)C3)nc1 [II-189],8.51
